# Reference: patent US20100173278A1, “MICROCAPSULES CONTAINING MAMMALS' SPERMATOZOIDS, INSEMINATION DOSE CONTAINING SAME AND METHOD FOR OBTAINING SAME” (Cooperative Bretonne D'Insemination Artificielle Porcine, priority 2007, published 2010)
# Read-outs that look alike come from different tables or passages of the source.
# System: semen
# Test: Biocompatibility with semen (non-spermicidal; mobility and viability of the spermatozoa)
# Type: cell-based, swine
# Excerpt: A summary of the tests conducted is given in the table at the end of the description.
Substance,Bio-compatibility,effect on the mobility and viability of the spermatozoa,spermicidal role with respect to semen,"Bio-compatibility (surfactant concentration 0.5%, matrix Suppocire DM)","Bio-compatibility (surfactant concentration 1%, matrix Gelucire 43/01)","Bio-compatibility (surfactant concentration 1%, matrix Suppocire DM)"
Tween 85,Yes,–,–,–,–,–
sorbitan monolaurate [Span 20],–,lack of any harmful effect,non-spermicidal,Yes,Yes,Yes
